The results in this text go back to patent US20250368666A1, “INDAZOLE COMPOUNDS” (TYRA BIOSCIENCES, INC., priority 2022, published 2025).

A word on the Kd: it is the equilibrium constant for the complex coming apart.

Experiment [1] concerns the target T1, FGFR3 (Homo sapiens, UniProt P22607).
T1 construct: made in house; host or cells: E. coli (BL21-derived), T7 phage
Description: Kinase binding assay (kinase-tagged T7 phage, affinity beads, qPCR), Kd. The following applies: kinase binding assay, 11-point 3-fold dilution series; read-out: FGFR3 (Kd nM). The procedure:
(§1) Kinase-tagged T7 phage strains were prepared in an E. coli host derived from the BL21 strain. E. coli were grown to log-phase and infected with T7 phage and incubated with shaking at 32° C. until lysis. The lysates were centrifuged and filtered to remove cell debris. Streptavidin-coated magnetic beads were treated with biotinylated small molecule ligands for 30 minutes at room temperature to generate affinity resins for kinase assays. The liganded beads were blocked with excess biotin and washed with blocking buffer SeaBlock (Pierce), 1% BSA, 0.05% Tween 20, 1 mM DTT to remove unbound ligand and to reduce non-specific binding.
(§2) Test compounds were prepared as 111× stocks in 100% DMSO. Kds were determined using an 11-point 3-fold compound dilution series with three DMSO control points. […] The compounds were then diluted directly into the assays such that the final concentration of DMSO was 0.9%. All reactions performed in polypropylene 384-well plate. Each was a final volume of 0.02 ml. […] The kinase concentration in the eluates was measured by qPCR.
(§3) Binding constants were calculated with a standard dose-response curve using the Hill equation: […]
(§4) The Hill Slope was set to −1. Curves were fitted using a non-linear least square fit with the Levenberg-Marquardt algorithm.
For orientation: Real-time PCR tracks product formation cycle by cycle.

The target of experiment [2] is T2, FGFR1 (Homo sapiens, UniProt P11362).
T2 construct: made in house; host or cells: E. coli (BL21-derived), T7 phage
The experiment is described as above. As to conditions: kinase binding assay, 11-point 3-fold dilution series; read-out: FGFR1 (Kd nM). The method, then:
as §1, §2, §3, §4

T1 sequence (P22607 23-806): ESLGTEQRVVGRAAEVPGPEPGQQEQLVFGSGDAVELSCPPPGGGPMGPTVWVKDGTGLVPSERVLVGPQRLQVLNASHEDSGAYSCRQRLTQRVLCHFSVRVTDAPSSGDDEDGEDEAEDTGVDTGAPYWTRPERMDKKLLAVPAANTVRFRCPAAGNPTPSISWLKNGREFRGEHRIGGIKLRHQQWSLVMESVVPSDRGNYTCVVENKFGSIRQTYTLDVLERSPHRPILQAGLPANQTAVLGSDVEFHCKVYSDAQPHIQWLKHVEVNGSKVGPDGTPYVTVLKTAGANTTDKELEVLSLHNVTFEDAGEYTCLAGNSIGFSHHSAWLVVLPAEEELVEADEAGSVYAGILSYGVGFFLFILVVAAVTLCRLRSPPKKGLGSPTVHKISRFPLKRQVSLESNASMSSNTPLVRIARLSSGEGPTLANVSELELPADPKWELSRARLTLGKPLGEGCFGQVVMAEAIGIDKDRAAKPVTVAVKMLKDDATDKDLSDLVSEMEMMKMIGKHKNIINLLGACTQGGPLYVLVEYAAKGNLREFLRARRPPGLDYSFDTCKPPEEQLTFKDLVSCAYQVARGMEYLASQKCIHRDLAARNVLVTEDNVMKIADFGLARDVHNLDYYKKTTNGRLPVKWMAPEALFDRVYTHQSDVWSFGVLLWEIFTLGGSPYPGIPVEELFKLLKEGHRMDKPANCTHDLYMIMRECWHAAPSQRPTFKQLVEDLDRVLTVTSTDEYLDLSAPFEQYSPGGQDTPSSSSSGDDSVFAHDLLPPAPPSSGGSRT
T2 sequence (P11362 22-822): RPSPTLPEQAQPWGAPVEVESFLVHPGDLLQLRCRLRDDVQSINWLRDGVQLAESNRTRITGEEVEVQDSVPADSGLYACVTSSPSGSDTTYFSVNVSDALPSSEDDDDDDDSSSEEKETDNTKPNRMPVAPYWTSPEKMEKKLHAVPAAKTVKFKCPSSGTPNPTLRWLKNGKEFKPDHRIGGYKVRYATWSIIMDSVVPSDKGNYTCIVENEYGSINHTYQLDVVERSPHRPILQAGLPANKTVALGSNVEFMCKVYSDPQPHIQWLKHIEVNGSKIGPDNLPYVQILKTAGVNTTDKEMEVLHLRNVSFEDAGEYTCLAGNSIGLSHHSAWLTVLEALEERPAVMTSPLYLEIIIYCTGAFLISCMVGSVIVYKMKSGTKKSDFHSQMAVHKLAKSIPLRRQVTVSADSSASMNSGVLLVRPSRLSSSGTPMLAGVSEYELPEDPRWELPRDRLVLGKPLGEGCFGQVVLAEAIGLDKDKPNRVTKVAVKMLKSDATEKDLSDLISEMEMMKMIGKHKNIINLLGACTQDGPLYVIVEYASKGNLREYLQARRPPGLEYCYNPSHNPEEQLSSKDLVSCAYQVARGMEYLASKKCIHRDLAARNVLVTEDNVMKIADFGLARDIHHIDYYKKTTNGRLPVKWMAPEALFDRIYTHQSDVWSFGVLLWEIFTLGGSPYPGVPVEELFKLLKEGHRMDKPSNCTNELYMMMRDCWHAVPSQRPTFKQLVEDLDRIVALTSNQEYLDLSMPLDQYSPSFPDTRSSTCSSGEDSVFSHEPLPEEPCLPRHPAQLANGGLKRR

For the molecule `CNC(=O)CNC1(C)CN(c2ncc(-c3n[nH]c4ccc(O[C@H](C)c5c(Cl)cncc5Cl)cc34)cc2F)C1` [Example 399, (R)-2-((1-(5-(5-(1-(3,5-dichloropyridin-4-yl)ethoxy)-1H-indazol-3-yl)-3-fluoropyridin-2-yl)-3-methylazetidin-3-yl)amino)-N-methylacetamide], the Kd in experiment [1] and in experiment [2] was 1 to 50 nM in each case.

Take `C[C@@H](Oc1ccc2[nH]nc(-c3cnc(N4CC[C@@](C)(N)C4)c(F)c3)c2c1)c1c(Cl)cncc1Cl` [Example 400, (R)-1-(5-(5-((R)-1-(3,5-dichloropyridin-4-yl)ethoxy)-1H-indazol-3-yl)-3-fluoropyridin-2-yl)-3-methylpyrrolidin-3-amine]: the Kd in experiment [1] and in experiment [2] was 1 to 50 nM each time.

For `C[C@@H](Oc1ccc2[nH]nc(-c3cnc(N4CCC(C)(N)CC4)c(F)c3)c2c1)c1c(Cl)cncc1Cl` [Example 401], the Kd in experiment [1] and in experiment [2] was 1 to 50 nM throughout.

On to `CC[C@@]1(N)CCN(c2ccc(-c3n[nH]c4ccc(O[C@H](C)c5c(Cl)cncc5Cl)cc34)nn2)C1` [Example 402, (R)-1-(6-(5-((R)-1-(3,5-dichloropyridin-4-yl)ethoxy)-1H-indazol-3-yl)pyridazin-3-yl)-3-ethylpyrrolidin-3-amine], for which the Kd in experiment [1] and in experiment [2] was 1 to 50 nM throughout.

With `CC[C@]1(N)CCN(c2ccc(-c3n[nH]c4ccc(O[C@H](C)c5c(Cl)cncc5Cl)cc34)nn2)C1` [Example 403, (S)-1-(6-(5-((R)-1-(3,5-dichloropyridin-4-yl)ethoxy)-1H-indazol-3-yl)pyridazin-3-yl)-3-ethylpyrrolidin-3-amine], the Kd in experiment [1] and in experiment [2] was 1 to 50 nM throughout.

For `C[C@@H](Oc1ccc2[nH]nc(-c3cnc(N4CC[C@](N)(c5ccnn5C)C4)c(F)c3)c2c1)c1c(Cl)cncc1Cl` [Example 404, (R)-1-(5-(5-((R)-1-(3,5-dichloropyridin-4-yl)ethoxy)-1H-indazol-3-yl)-3-fluoropyridin-2-yl)-3-(1-methyl-1H-pyrazol-5-yl)pyrrolidin-3-amine], the Kd in experiment [1] and in experiment [2] was 1 to 50 nM each time.

Turning to `C[C@@H](Oc1ccc2[nH]nc(-c3cnc(N4CC[C@@](N)(c5ccnn5C)C4)c(F)c3)c2c1)c1c(Cl)cncc1Cl` [Example 405, (S)-1-(5-(5-((R)-1-(3,5-dichloropyridin-4-yl)ethoxy)-1H-indazol-3-yl)-3-fluoropyridin-2-yl)-3-(1-methyl-1H-pyrazol-5-yl)pyrrolidin-3-amine], the Kd in experiment [1] and in experiment [2] was 1 to 50 nM each time.

Take `C[C@@H](Oc1ccc2[nH]nc(-c3ccc(N4CC[C@@](C)(N)C4)nn3)c2c1)c1c(Cl)cncc1Cl` [Example 406, (R)-1-(6-(5-((R)-1-(3,5-dichloropyridin-4-yl)ethoxy)-1H-indazol-3-yl)pyridazin-3-yl)-3-methylpyrrolidin-3-amine]: the Kd in experiment [1] and in experiment [2] was 1 to 50 nM throughout.

Turning to `C[C@@H](Oc1ccc2[nH]nc(-c3ccc(N4CC[C@](C)(N)C4)nn3)c2c1)c1c(Cl)cncc1Cl` [Example 407, (S)-1-(6-(5-((R)-1-(3,5-dichloropyridin-4-yl)ethoxy)-1H-indazol-3-yl)pyridazin-3-yl)-3-methylpyrrolidin-3-amine], the Kd in experiment [1] and in experiment [2] was 1 to 50 nM each time.

As to `C[C@@H](Oc1ccc2[nH]nc(-c3cnc(N4CC(N)(CS(C)(=O)=O)C4)c(F)c3)c2c1)c1c(Cl)cncc1Cl` [Example 412, 1-[5-[5-[(1R)-1-(3,5-dichloro-4-pyridyl)ethoxy]-1H-indazol-3-yl]-3-fluoro-2-pyridyl]-3-(methylsulfonyl-methyl)azetidin-3-amine], the Kd in experiment [1] and in experiment [2] was 1 to 50 nM throughout.
